Data taken from patent US7838685B2 (priority 2005, dated 2010).
“And” between values parts separate entries of the source, which are not always exact repeats. Identical values can stand only once.

Tests used:
[1] = Phase transition temperature by differential scanning calorimeter; assay type: physicochemical; settings: for Transition temperature: comparison of cationic vesicles, hydrated at 10 mg/mL, extruded through 0.22 μm filter; for Tc, temperature of the gel to liquid-crystalline phase transition: dispersed in pure water, lipid concentration 1 wt %, DSC 2° C./min, 20 to 80° C.
Method: Each of the obtained cationic amino acid type lipids was dispersed in a simple medium of pure water at 60° C. and used as a measurement sample. 60 μL of a sample solution (lipid concentration: 1 wt %) was encapsulated in a silver pan (sealable type), and the phase transition temperature Tc was measured by a differential scanning calorimeter with the temperature elevation rate of 2° C./min. and the measurement temperature of 20 to 80° C.
(§1) Lys-Asp2C16 (5) was hydrated at a lipid concentration of 10 mg/mL and transmitted through a membrane filter having a final pore diameter of 0.22 μm by the extrusion method. Then, the phase transition temperature and the particle size of the assembly were measured. The particle size of the molecular assembly of Lys-Asp2C16 (5) measured by the dynamic light scattering method was 374±178 nm, and the phase transition temperature thereof was 30° C.

[2] = Zeta potential of the molecular assembly including a single type of cationic amino acid type lipid; assay type: physicochemical; settings: molecular assembly 1 mg/mL, extrusion method, 30 mM phosphoric buffer solution pH7.4
Method: The zeta potential of a molecular assembly (1 mg/mL) including a single type of cationic amino acid type lipid (2), (3) or (4) prepared by the extrusion method was measured by a zeta potentiometer (Nano-ZS, Malvern) with 30 mM of a phosphoric buffer solution at pH7.4. The zeta potential of each molecular assembly was +37 mV with the cationic amino acid type lipid (2), +45 mV with the cationic amino acid type lipid (3), and lower at +18 mV with the cationic amino acid type lipid (4). From such zeta potentials, it has been clarified that the surface of a molecular assembly formed of a cationic amino acid type lipid is charged positive under physiological conditions.

[3] = Particle size of the molecular assembly by dynamic light scattering method; assay type: physicochemical; settings: hydrate extruded through 0.22 μm membrane filter
Method: (§2) 10 mg of the cationic amino acid type lipid (2), (3) or (4) was hydrated in 2 mL of pure water and stirred at room temperature for 6 hours. Then, the resultant hydrate was transmitted with pressure through a membrane filter (final pore diameter: 0.22 μm) (extrusion method). […] After the transmission, the resultant substance was subjected to ultracentrifugation (33,000 rpm, 30 min.) and re-dispersed in pure water to obtain a molecular assembly including a respective cationic amino acid type lipid.
A hydrate dispersion solution of the cationic amino acid type lipid (2) was extruded and observed with an electron microscope. The particle size of the vesicles was approximately the same as the particle size thereof measured by a dynamic light scattering method (181±83 nm).
as §1

[4] = test system: simian kidney-derived cells COS-7; assay: Cytotoxicity test, cell survival rate by WST assay, COS-7; assay type: cell-based; settings: COS-7, 10 μg added, 24 hours later
Method: (§3) The cationic amino acid type lipid (2) was evaluated in terms of cytotoxicity by adding different amounts thereof to cells. Specifically, 1×10^4 simian kidney-derived cells COS-7 or human fibroblasts CCD-32SK were planted to dishes and cultured for 24 hours in an incubator. To the cultured cells, a cationic liposome diluted with a medium was added so as to be 0.1, 1, 5, and 10 μg/dish. The cells were cultured for another 24 hours. Then, the cells were washed with a medium, and the cell survival rate was calculated by the WST assay. Based on the results, the cytotoxicity was evaluated (n=2). For comparison, the same test was performed using lipofectamine, which is currently in general use as a gene introduction drag. In the figure, (a) represents the results with COS-7, and (b) represents the results with CCD-32SK. Where 10 μg of lipofectamine was added to COS-7, the cell survival rate 24 hours later was 20%.

[5] = test system: human fibroblasts CCD-32SK; assay: Cytotoxicity test, cell survival rate by WST assay, CCD-32SK; assay type: cell-based; settings: 24 h, 10 μg/dish
Method: as §3

[6] = Observation of the molecular assembly with transmission electron microscope; assay type: physicochemical; settings: for Form of molecular assembly observed with electron microscope: hydrate dispersion extruded
Method: as §2
The thickness of the ribbon is considered to be about 5 nm, which is approximately the same as the thickness of the bilayer.

Structure (SMILES)	Transition temperature [1] [°C]	Tc, temperature of the gel to liquid-crystalline phase transition [1] [°C]	ξ potential [2]	Particle size (dynamic light scattering method) [3]	Form of molecular assembly observed with electron microscope ([6]; TEM)	also measured
CCCCCCCCCCCCCCCCOC(=O)CCC(NC(=O)C(N)CCCCN)C(=O)OCCCCCCCCCCCCCCCC (centres unmarked) [Compound 2]	41.2	41.2	+37 mV	181±83 nm and 188 ± 82 nm		Cell survival rate [4]: not decreased at all; Cell survival rate [5]: about 80%
CCCCCCCCCCCCCCCCOC(=O)CC(NC(=O)C(N)CCCCN)C(=O)OCCCCCCCCCCCCCCCC (centres unmarked) [Compound 5, Lys-Asp2C16, reference compound]	30.0			374 ± 178 nm	ribbon-like molecular assembly	Transition temperature ([1]; listed as Lys-Asp2C16 (5)): 30 °C; Particle size (dynamic light scattering method) ([3]; listed as Lys-Asp2C16 (5)): 374±178 nm; Length of the ribbon ([6]; TEM): ≥ 1 μm; Thickness of the ribbon ([6]; TEM): about 5 nm; Width of the ribbon ([6]; TEM): about 100 nm; Stability of the form of the molecular assembly ([6]; after transmission through 0.22 μm membrane filter): unstable in the form
CCCCCCCCCCCCCCCCOC(=O)CCC(NC(=O)C(N)Cc1c[nH]cn1)C(=O)OCCCCCCCCCCCCCCCC (centres unmarked) [Compound 3]		43.7	+45 mV	241±96 nm	tubular molecular assembly	Diameter of tubular molecular assembly ([6]; electron microscope): about 20 nm; Wall thickness of the tube ([6]; electron microscope): about 5 nm
CCCCCCCCCCCCCCCCOC(=O)CCC(NC(=O)C(N)CCCNC(=N)N)C(=O)OCCCCCCCCCCCCCCCC (centres unmarked) [Compound 4]		44.8	+18 mV	1647±733 nm	monolayer vesicle structures	
CCCCCCCCCCCCCCCCOC(=O)CCC(N)C(=O)OCCCCCCCCCCCCCCCC (centres unmarked) [Compound 1]		49.4				
